Patent publication US20150307520A1, “NOVEL HETEROARYL AND HETEROCYCLE COMPOUNDS, COMPOSITIONS AND METHODS THEREOF” (HUTCHISON MEDIPHARMA LIMITED, priority 2012, published 2015)

Legend:
Type in all cases: biochemical
p110γ = p110γ (Homo sapiens, UniProt P48736); experiment: Transcreener KINASE Assay, kinase inhibition of p110γ; conditions: for PI3Kγ IH % @ 1 uM: 1 uM test compound; for IC50: read-out: PI3Kγ IC50
Method in brief: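 Kinase activity is monitored as ADP formation, detected by competitive fluorescence polarization with a far-red tracer. Recombinant isoform complexes react for 80 min at room temperature before a 60 min detection step. IC50 values come from fitted dose-response data.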

p110β/p85α = p110β/p85α (Homo sapiens, UniProt P42338); experiment: Transcreener KINASE Assay, kinase inhibition of p110β/p85α; conditions: for PI3Kβ IH % @ 1 uM: 1 uM test compound; for IC50: read-out: PI3Kβ IC50
Chain of p110β/p85α (P42338 whole entry): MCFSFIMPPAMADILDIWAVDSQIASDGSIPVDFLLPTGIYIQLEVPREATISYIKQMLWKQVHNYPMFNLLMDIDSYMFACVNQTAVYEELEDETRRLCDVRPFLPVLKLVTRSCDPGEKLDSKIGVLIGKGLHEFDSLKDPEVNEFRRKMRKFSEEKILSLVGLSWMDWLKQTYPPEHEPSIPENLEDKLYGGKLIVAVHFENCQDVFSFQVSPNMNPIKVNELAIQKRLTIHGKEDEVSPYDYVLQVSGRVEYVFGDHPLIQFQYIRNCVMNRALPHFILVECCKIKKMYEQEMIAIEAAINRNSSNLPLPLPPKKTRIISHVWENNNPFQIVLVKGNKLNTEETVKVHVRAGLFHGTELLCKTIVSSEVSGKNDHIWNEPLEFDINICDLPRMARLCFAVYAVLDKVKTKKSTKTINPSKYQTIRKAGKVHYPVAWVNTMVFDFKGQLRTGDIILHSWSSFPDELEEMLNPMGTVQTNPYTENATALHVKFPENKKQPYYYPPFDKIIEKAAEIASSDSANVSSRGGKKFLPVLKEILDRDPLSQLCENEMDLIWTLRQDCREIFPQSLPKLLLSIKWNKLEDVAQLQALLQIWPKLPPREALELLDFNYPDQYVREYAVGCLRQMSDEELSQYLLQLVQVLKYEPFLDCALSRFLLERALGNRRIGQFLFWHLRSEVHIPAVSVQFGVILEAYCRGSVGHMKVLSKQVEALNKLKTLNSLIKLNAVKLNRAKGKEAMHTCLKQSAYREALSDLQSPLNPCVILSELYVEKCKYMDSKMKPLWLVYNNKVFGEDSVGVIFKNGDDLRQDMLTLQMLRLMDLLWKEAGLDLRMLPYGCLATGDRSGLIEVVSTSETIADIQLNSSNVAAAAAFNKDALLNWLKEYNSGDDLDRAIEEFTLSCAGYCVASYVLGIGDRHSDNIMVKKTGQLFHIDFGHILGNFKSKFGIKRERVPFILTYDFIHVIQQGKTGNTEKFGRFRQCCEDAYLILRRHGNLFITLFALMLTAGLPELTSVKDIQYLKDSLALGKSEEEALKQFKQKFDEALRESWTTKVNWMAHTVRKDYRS
Chain of p110β/p85α (P27986 2-724 partner): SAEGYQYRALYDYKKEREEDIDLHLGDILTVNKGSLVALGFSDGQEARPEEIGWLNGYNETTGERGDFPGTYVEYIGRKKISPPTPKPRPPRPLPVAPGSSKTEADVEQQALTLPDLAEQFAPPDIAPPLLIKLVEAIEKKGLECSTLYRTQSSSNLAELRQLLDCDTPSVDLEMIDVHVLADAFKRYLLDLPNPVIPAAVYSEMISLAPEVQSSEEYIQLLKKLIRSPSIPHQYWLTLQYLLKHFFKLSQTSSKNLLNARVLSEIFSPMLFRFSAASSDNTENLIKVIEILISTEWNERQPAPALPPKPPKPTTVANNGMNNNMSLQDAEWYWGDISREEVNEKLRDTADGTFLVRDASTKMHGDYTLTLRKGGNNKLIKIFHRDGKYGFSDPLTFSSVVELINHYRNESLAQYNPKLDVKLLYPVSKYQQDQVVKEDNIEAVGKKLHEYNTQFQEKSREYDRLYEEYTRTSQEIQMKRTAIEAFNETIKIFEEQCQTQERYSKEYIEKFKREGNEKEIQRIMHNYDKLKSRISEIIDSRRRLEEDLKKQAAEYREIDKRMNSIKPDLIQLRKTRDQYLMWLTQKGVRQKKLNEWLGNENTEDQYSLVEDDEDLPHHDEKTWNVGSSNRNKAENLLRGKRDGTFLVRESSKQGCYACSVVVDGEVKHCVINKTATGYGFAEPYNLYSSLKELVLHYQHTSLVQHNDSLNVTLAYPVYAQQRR
Method in brief: (§1)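 Recombinant human PI3K heterodimers (p110/p85α) incubated with compound (2% DMSO final) in HEPES/NaCl/EGTA/CHAPS/MgCl2/DTT buffer with 30 uM PIP2 and 10 uM ATP (as added) for 80 min at room temperature.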

p110δ/p85α = p110δ/p85α (Homo sapiens, UniProt O00329); experiment: Transcreener KINASE Assay, kinase inhibition of p110δ/p85α; conditions: for PI3Kδ IH % @ 1 uM: 1 uM test compound; for IC50: read-out: PI3Kδ IC50
Chain of p110δ/p85α (O00329 whole entry): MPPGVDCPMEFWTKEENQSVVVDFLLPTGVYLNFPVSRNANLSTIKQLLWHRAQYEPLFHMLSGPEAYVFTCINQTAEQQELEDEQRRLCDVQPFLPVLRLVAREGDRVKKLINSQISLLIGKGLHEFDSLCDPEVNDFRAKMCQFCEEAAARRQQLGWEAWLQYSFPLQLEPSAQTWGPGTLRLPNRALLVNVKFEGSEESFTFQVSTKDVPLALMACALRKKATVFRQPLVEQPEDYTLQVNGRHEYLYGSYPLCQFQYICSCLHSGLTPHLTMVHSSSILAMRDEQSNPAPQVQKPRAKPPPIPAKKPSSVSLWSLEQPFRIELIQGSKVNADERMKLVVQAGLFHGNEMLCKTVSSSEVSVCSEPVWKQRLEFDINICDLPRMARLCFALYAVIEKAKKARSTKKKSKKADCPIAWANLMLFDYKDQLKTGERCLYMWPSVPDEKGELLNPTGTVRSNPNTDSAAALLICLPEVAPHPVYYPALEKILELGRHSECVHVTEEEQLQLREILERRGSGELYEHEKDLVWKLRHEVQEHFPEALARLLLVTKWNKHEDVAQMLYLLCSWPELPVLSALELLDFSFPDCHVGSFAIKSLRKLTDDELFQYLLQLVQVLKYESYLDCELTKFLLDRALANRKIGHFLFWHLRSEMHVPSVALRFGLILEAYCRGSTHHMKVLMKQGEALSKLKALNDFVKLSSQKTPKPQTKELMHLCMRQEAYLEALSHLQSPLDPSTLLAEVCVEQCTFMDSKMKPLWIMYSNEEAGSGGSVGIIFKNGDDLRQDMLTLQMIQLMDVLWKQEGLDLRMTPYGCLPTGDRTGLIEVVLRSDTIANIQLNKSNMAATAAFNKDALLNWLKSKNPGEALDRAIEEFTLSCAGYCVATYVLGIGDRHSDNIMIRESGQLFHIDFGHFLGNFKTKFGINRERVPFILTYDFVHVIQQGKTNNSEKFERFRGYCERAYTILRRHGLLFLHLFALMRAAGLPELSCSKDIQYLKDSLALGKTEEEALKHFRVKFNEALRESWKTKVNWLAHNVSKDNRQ
Chain of p110δ/p85α (P27986 whole entry partner): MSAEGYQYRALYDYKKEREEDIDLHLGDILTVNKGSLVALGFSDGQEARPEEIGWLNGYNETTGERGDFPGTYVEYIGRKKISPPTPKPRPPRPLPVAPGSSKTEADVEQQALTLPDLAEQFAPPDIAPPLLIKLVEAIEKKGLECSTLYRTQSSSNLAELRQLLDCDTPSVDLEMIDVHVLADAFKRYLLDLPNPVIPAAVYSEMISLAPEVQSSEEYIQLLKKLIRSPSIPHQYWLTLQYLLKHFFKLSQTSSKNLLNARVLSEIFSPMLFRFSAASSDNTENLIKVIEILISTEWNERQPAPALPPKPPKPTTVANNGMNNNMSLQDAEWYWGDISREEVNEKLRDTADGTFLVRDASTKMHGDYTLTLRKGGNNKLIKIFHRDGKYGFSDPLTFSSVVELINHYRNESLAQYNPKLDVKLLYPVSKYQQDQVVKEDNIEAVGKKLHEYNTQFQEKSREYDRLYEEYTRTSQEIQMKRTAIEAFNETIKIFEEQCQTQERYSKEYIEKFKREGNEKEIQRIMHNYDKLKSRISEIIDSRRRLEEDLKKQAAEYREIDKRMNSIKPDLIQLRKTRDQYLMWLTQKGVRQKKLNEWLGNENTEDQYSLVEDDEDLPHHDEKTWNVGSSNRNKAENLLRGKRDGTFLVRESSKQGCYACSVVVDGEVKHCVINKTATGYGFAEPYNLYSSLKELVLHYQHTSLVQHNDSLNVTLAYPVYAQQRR
Method in brief: as §1

Chain of p110γ (P48736 whole entry, canonical isoform): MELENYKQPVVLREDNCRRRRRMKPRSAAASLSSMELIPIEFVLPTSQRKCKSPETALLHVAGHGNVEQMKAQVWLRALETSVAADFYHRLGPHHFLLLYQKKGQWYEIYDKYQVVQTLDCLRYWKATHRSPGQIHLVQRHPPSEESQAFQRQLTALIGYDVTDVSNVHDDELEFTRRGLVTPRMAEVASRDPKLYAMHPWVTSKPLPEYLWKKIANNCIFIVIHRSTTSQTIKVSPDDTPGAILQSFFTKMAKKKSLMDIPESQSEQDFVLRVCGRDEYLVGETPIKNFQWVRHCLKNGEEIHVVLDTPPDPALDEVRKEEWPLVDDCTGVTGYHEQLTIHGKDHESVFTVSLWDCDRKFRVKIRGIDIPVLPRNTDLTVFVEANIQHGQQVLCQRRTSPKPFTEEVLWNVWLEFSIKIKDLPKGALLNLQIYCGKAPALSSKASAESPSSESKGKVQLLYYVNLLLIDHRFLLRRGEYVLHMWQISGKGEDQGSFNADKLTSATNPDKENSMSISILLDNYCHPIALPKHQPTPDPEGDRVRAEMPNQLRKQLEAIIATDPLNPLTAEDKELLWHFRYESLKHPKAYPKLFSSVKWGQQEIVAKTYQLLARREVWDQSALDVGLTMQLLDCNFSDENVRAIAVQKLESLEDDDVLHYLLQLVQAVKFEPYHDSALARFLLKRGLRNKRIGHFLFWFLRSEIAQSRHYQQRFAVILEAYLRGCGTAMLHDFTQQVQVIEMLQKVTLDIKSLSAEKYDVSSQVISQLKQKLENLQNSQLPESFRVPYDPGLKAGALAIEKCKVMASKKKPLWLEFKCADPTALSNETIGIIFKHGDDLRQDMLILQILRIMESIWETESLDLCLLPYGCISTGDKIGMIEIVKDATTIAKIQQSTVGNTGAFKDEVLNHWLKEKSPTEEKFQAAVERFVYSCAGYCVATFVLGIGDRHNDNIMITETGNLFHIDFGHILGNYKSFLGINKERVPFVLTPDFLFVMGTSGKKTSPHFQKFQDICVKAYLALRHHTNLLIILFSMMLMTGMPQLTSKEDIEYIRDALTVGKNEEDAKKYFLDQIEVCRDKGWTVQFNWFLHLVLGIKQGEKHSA

SMILES | PI3Kγ IH % @ 1 uM (p110γ) [%] | IC50 (p110γ) [nM] | PI3Kβ IH % @ 1 uM (p110β/p85α) [%] | PI3Kδ IH % @ 1 uM (p110δ/p85α) [%] | IC50 (p110δ/p85α) [nM] | IC50 (p110β/p85α) [nM]
Nc1nc2c(c(N3CCC[C@H]3c3nn4ccc(Cl)c4c(=O)n3-c3ccccc3)n1)CCC2 [Compound 246] | 80.8 | 696 | 2.5 | 84.6 | 562 | 
Nc1nc2c(c(N3CC[C@H]3c3nn4ccc(Cl)c4c(=O)n3-c3ccccc3)n1)CCC2 [Compound 247] | 73.0 |  | 4.8 | 53.0 |  | 
Nc1nc2c(c(N3CC[C@H]3c3nn4ccc(F)c4c(=O)n3-c3ccccc3)n1)C(=O)CCN2 [Compound 248] | 98.0 | 9 | −10.7 | 96.2 | 9 | 
Nc1nc2c(c(N3CCC[C@H]3c3nn4ccc(F)c4c(=O)n3-c3ccccc3)n1)C(=O)CCN2 [Compound 249] | 98.0 | 29 | 24.8 | 99.3 | 8 | 
Nc1nc2c(c(N3C[C@@H](F)C[C@H]3c3nn4ccc(F)c4c(=O)n3-c3ccccc3)n1)C(=O)CCN2 [Compound 250] | 95.8 | 45 | 33.4 | 99.1 | 22 | 
CN(C)CCn1c([C@@H]2CCCN2c2ncnc3[nH]cnc23)nn2ccc(Cl)c2c1=O [Compound 251] | 56.3 |  | 50.4 | 88.3 | 102 | 
CN(C)CCn1c([C@@H]2CCCN2c2ncnc3[nH]cc(C#N)c23)nn2ccc(Cl)c2c1=O [Compound 252] | 68.9 |  | 56.6 | 97.0 | 7 | 
O=c1c2c(Cl)ccn2nc([C@@H]2CCCN2c2ncnc3[nH]cnc23)n1CCN1CCOCC1 [Compound 253] | 69.0 | 553 | 45.1 | 92.8 | 52 | 
N#Cc1c[nH]c2ncnc(N3CCC[C@H]3c3nn4ccc(Cl)c4c(=O)n3CCN3CCOCC3)c12 [Compound 255] | >100 | 73 | 72.6 | >100 | 4 | 304
N#Cc1c[nH]c2ncnc(N3CCC[C@H]3c3nn4ccc(Cl)c4c(=O)n3CC3CC3)c12 [Compound 257] | >100 | 18 | 82.4 | >100 | 2 | 80
N#Cc1c[nH]c2ncnc(N3CCC[C@H]3c3nn4ccc(Cl)c4c(=O)n3CC3CCCCC3)c12 [Compound 258] | 73.0 | 467 | 10.4 | 94.7 | 76 | 
CC(C)Cn1c([C@@H]2CCN2c2ncnc3[nH]cc(C#N)c23)nn2ccc(Cl)c2c1=O [Compound 259] | 89.5 | 170 | 41.5 | 98.8 | 27 | 
